Patent US4684644A, “Basic monocarboxyamide derivatives of actagardine having antibiotic activity and compositions thereof” (Gruppo Lepetit S.p.A., priority 1985, dated 1987)
Like-named read-outs stand apart in the source and are kept apart here.

Assays:
S. bovis D L 1325 = experiment: In vitro antibacterial activity (MIC), S. bovis D L 1325; type: cell-based; details: S. bovis D L 1325, clinical isolate; 2% bovine serum
Protocol: (§1) Minimal inhibitory concentration (MIC) are determined by the twofold serial dilution method in Brain heart infusion broth (Difco); it is supplemented with 2% bovine serum when streptococci are tested. The inoculum size is about 10^3 colony units per ml (CFU/ml). The MIC is defined as the lowest concentration which prevents visible growth after overnight incubation at 37° C. The influence of serum is determined on S. aureus Tour by adding 30% bovine serum to the medium. […] The antimicrobial activities of the compounds of the invention in comparison with reference compound (actagardine) are reported in the following Table IV:
(§2) ^(3) Clinical isolates.

S. faecalis D L 1321 = experiment: In vitro antibacterial activity (MIC), S. faecalis D L 1321; type: cell-based; details: S. faecalis D L 1321, clinical isolate; 2% bovine serum
Protocol: as §1, §2

S. viridans L 1322 = experiment: In vitro antibacterial activity (MIC), S. viridans L 1322; type: cell-based; details: S. viridans L 1322, clinical isolate; 2% bovine serum
Protocol: as §1, §2

S. aureus TOUR = experiment: In vitro antibacterial activity (MIC), S. aureus TOUR; type: cell-based
Protocol: as §1, with “The inoculum size is about 10^3 colony units per ml (CFU/ml).” left out
^(2) In the presence of 30% bovine serum

gram-positive organisms = details: in vitro and in vivo; cited from earlier work
Solubility in water = details: for Solubility in water, pH 4.0 / Solubility in water, pH 7.3: approximate values
S. pneumoniae UC 41 = experiment: In vitro antibacterial activity (MIC), S. pneumoniae UC 41; type: cell-based; details: 2% bovine serum, ~10^3 CFU/ml
Protocol: as §1, with “IV: […]” for “IV:”

S. mitis L 1320 = experiment: In vitro antibacterial activity (MIC), S. mitis L 1320; type: cell-based; details: S. mitis L 1320, clinical isolate; 2% bovine serum
Protocol: as §1, §2

S. pyogenes C 203 [1] = experiment: In vivo test in mice experimentally infected with S. pyogenes C 203; details: mice infected i.p. with S. pyogenes C 203; s.c. once a day for three days; survival on 10th day
Protocol: (§3) The antimicrobial activity of the compounds of the invention is also confirmed in in vivo test in mices experimentally infected with S. pyogenes or S. pneumoniae. The experiments are conducted essentially as described by R. Pallanza et al., J. Antimicrob. Chemother. 11, 419 (1983).
(§4) The experimental infection was induced in mice by intraperitoneally administering a suspension of the test pathogens. Inocula had been adjusted so that the untreated animals died of septicemia within 48 h. Animals were treated subcutaneously with the test compound once a day for three days starting about 30 min after infection.
(§5) The ED50 value was calculated on the 10th day by the method of Spearman and Karber (D. J. Finney "Statistical Method in Biological Assay", Griffin, page 524, 1952) on the basis of the percentage of survival at each dose.

S. salivarius L 1323 = experiment: In vitro antibacterial activity (MIC), S. salivarius L 1323; type: cell-based; details: S. salivarius L 1323, clinical isolate; 2% bovine serum
Protocol: as §1, §2

[2] = Acid-base titration in MCS:H2O (pK of basic functions); type: physicochemical; details: MCS:H2O 4:1 (v/v)
Protocol: ^(2) Acid-base titrations were carried out in both aqueous
[methylcellosolve (MCS): water 4:1 (v/v)] and nonaqueous [pyridine or
acetic acid] solvents. The pKMCS values (pK2) of the additional
basic functions were determined in MCS:H2 O 4:1 (v/v) solution by
titration of the compounds with 0.01 N Na OH. The presence of the free
amino group of actagardine (pKMCS 6.3) in the derivatives, except
compound XIII, was confirmed by titration with 0.01 N HCl. Compound XIII
equivalent weights (E W) were obtained by titration with either
hydroxytetrabutylamine (HTBA) in pyridine or perchloric acid (HClO4)
actagardine (pKMCS 6.3) unmodified. Titration in MCS:H2 O 4:1

S. sanguis H L 1324 = experiment: In vitro antibacterial activity (MIC), S. sanguis H L 1324; type: cell-based; details: S. sanguis H L 1324, clinical isolate; 2% bovine serum
Protocol: as §1, §2

[3] = Partition coefficient (log P) between n-octanol and water; type: physicochemical
Protocol: ^(3) Partition coefficients (log P) were determined between noctanol
and water. The concentration of the compounds in each phase was determine
spectrophotometrically (UV).
^(6) 0.1 M acetate buffer pH 3.0.
is log P between noctanol and 0.1 M phosphate buffer pH 7.3.

S. pyogenes C 203 [4] = experiment: In vitro antibacterial activity (MIC), S. pyogenes C 203; type: cell-based; details: 2% bovine serum, ~10^3 CFU/ml
Protocol: as §1, with “IV: […]” for “IV:”

S. pyogenes C 203 [5] = experiment: Bactericidal activity against growing cells of S. pyogenes C 203; type: cell-based; details: 10 times the MIC, Todd-Hewitt broth, 37° C.
Protocol: The antibacterial activity of compound III (a and b) was compared with that of actagardine against growing cells of S. pyogenes C 203. […] For compound III, this level of killing action was obtained also at a dose equal to the MIC (0.4 ug/ml). This comparison was carried out on Todd-Hewitt broth(s) containing compound III and actagardine at concentrations equal to or multiple of the MIC which were inoculated with growing cells of S. pyogenes C 203 (~10^6 CFU/ml). The cultures were incubated at 37° C. with shaking and viable cells were counted at intervals.

S. pneumoniae UC41 = experiment: In vivo test in mice experimentally infected with S. pneumoniae UC41; details: mice infected i.p. with S. pneumoniae UC41; s.c. once a day for three days; survival on 10th day
Protocol: as §3, §4, §5

[6] = in the presence of 30% bovine serum
[7] = n-octanol/0.1 M acetate buffer pH 3.0

actagardine [reference compound]
MIC (S. bovis D L 1325): 100 µg/mL | MIC (S. faecalis D L 1321): 100 µg/mL | MIC (S. viridans L 1322): 100 µg/mL | MIC (S. aureus TOUR; [6]): 25 µg/mL | MIC (S. aureus TOUR; inoculum 10^3 CFU/ml): 25 µg/mL | MIC (S. aureus TOUR; inoculum 10^6 CFU/ml): 50 µg/mL | antimicrobial activity (in words) (gram-positive organisms): antimicrobial in vitro and in vivo activity against gram-positive organisms | solubility in water (in words) (Solubility in water; acid form): not soluble in water | Solubility in water, pH 4.0 (Solubility in water): < 10 mg/ml | Solubility in water, pH 7.3 (Solubility in water): 70 mg/ml | MIC (S. pneumoniae UC 41): 25 µg/mL | MIC (S. mitis L 1320): 12.5 µg/mL | ED50 (S. pyogenes C 203 [1]): 0.81 mg/kg | MIC (S. salivarius L 1323): 3.1 µg/mL | pKMCS of the free amino group of actagardine ([2]; titration with 0.01 N HCl): 6.3 | MIC (S. sanguis H L 1324): 100 µg/mL | Partition Coeff. (log P), CH3(CH2)7OH/H2O, pH 3 [3, 7]: 0.357 | log P between n-octanol and 0.1 M phosphate buffer pH 7.3 ([3]; n-octanol/0.1 M phosphate buffer pH 7.3): -0.545 | MIC (S. pyogenes C 203 [4]): 1.6 µg/mL | killing effect (S. pyogenes C 203 [5]; 24 h): 99.9% | killing effect (S. pyogenes C 203 [5]; after 5 h of incubation): 99%

N-ethyl actagardine 3,3-dimethylamino-1-propylamide monocarboxamide [Compound XIII]
MIC (S. bovis D L 1325): 25 µg/mL | MIC (S. faecalis D L 1321): 100 µg/mL | MIC (S. aureus TOUR; inoculum 10^3 CFU/ml): 50 µg/mL | MIC (S. pneumoniae UC 41): 12.5 µg/mL | MIC (S. mitis L 1320): 3.1 µg/mL | ED50 (S. pyogenes C 203 [1]): 0.23 mg/kg | MIC (S. salivarius L 1323): 0.8 µg/mL | MIC (S. sanguis H L 1324): 50 µg/mL | MIC (S. pyogenes C 203 [4]): 0.8 µg/mL

actagardine 3,3-dimethylamino-1-propylamide monocarboxamide, hydrochloride [IIIb]
Solubility in water, pH 4.0 (Solubility in water): 600 mg/ml | Solubility in water, pH 7.3 (Solubility in water): 200 mg/ml | ED50 (S. pyogenes C 203 [1]): 0.47 mg/kg | ED50 (S. pneumoniae UC41): 3.5 mg/kg | pk2 (MCS/H2O) ([2]; pKMCS of additional basic function, titration with 0.01 N NaOH): 9.2 | Partition Coeff. (log P), CH3(CH2)7OH/H2O, pH 3 [3, 7]: -1.644

actagardine N-(2-aminoethyl)-1,2-ethanediamine monocarboxamide [IV]
MIC (S. bovis D L 1325): 25 µg/mL | MIC (S. faecalis D L 1321): 100 µg/mL | MIC (S. viridans L 1322): 25 µg/mL | MIC (S. aureus TOUR; [6]): 12.5 µg/mL | MIC (S. aureus TOUR; inoculum 10^3 CFU/ml): 50 µg/mL | MIC (S. aureus TOUR; inoculum 10^6 CFU/ml): 50 µg/mL | MIC (S. pneumoniae UC 41): 12.5 µg/mL | MIC (S. mitis L 1320): 3.1 µg/mL | ED50 (S. pyogenes C 203 [1]): 0.62 mg/kg | MIC (S. salivarius L 1323): 0.8 µg/mL | MIC (S. sanguis H L 1324): 50 µg/mL | Solubility in water, pH 4.0: 100 mg/ml | Partition Coeff. (log P), CH3(CH2)7OH/H2O, pH 3 ([3]; 0.1 m acetate buffer, pH 3): -1.353 | Partition Coeff. (log P), CH3(CH2)7OH/H2O, H2O ([3]; distilled water): -0.680 | MIC (S. pyogenes C 203 [4]): 0.8 µg/mL
